Source: patent US7138361B2, “Herbicidal heterocycles” (E. I. du Pont de Nemours and Company, priority 2000, dated 2006)

Columns and labels:
Type in all cases: in vivo
[1] = tested on: Surinam grass (Brachiaria decumbens); test: Test B postemergence
In short: (§1)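 Preemergence: seeds planted and treated with test chemicals in non-phytotoxic solvent with surfactant; postemergence on plants 2–18 cm (1- to 4-leaf stage). Kept in greenhouse 13–15 days, then visually rated against controls on a 0 (no effect) to 100 (complete control) scale.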

[2] = tested on: barnyardgrass (Echinochloa crus-galli); test: Test B postemergence
In short: as §1

[3] = tested on: cocklebur (Xanthium strumarium); test: Test B postemergence
In short: as §1

corn (Zea mays) [4] = test: Test B postemergence
In short: as §1

[5] = tested on: crabgrass (Digitaria sanguinalis); test: Test B postemergence; details: Rate 125 g/ha, scale 0 to 100, 0 no effect, 100 complete control
In short: as §1

[6] = tested on: giant foxtail (Setaria faberii); test: Test B postemergence; details: Rate 125 g/ha, scale 0 to 100, 0 no effect, 100 complete control
In short: as §1

[7] = tested on: morning glory (Ipomoea hederacea); test: Test B postemergence; details: Rate 125 g/ha, scale 0 to 100, 0 no effect, 100 complete control
In short: as §1

[8] = tested on: pigweed (Amaranthus retroflexus); test: Test B postemergence; details: Rate 125 g/ha, scale 0 to 100, 0 no effect, 100 complete control
In short: as §1

[9] = tested on: velvetleaf (Abutilon theophrasti); test: Test B postemergence; details: Rate 125 g/ha, scale 0 to 100, 0 no effect, 100 complete control
In short: as §1

[10] = tested on: wheat (Triticum aestivum); test: Test B postemergence; details: Rate 125 g/ha, scale 0 to 100, 0 no effect, 100 complete control
In short: as §1

wild oat (Avena fatua) = test: Test B postemergence; details: Rate 125 g/ha, scale 0 to 100, 0 no effect, 100 complete control
In short: as §1

Nightshade = test: Test C preemergence
Sunflower [11] = test: Test C preemergence; details: Rate 125 g/ha; scale 0 to 100, 0 no effect, 100 complete control
[12] = tested on: common ragweed (Ambrosia elatior); test: Test C preemergence; details: for Plant response rating (0 to 100), Ragweed, Common: Rate 500 g/ha, visual evaluation after 12 to 14 days
In short: (§2)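 Herbicidal effect is a visual 0–100 score (100 = complete control) assigned versus untreated plants, 12 to 14 days after spraying in the greenhouse. Test compounds were applied in a non-phytotoxic, surfactant-containing solvent.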

corn (Zea mays) [13] = test: Test C preemergence; details: for Plant response rating (0 to 100), Corn: Rate 500 g/ha, visual evaluation after 12 to 14 days
In short: as §2

[14] = tested on: goosegrass (Eleusine indica); test: Test C preemergence; details: for Plant response rating (0 to 100), Goosegrass: Rate 500 g/ha, visual evaluation after 12 to 14 days
In short: as §2

[15] = tested on: johnsongrass (Sorghum halepense); test: Test C preemergence; details: for Plant response rating (0 to 100), Johnsongrass: Rate 500 g/ha, visual evaluation after 12 to 14 days
In short: as §2

[16] = tested on: lambsquarters (Chenopodium album); test: Test C preemergence; details: for Plant response rating (0 to 100), Lambsquarters: Rate 500 g/ha, visual evaluation after 12 to 14 days
In short: as §2

[17] = tested on: morningglory (Ipomoea hederacea); test: Test C preemergence; details: for Plant response rating (0 to 100), Morningglory: Rate 500 g/ha, visual evaluation after 12 to 14 days
In short: as §2

[18] = tested on: velvetleaf (Abutilon theophrasti); test: Test C preemergence; details: for Plant response rating (0 to 100), Velvetleaf: Rate 500 g/ha, visual evaluation after 12 to 14 days
In short: as §2

[19] = tested on: yellow nutsedge (Cyperus esculentus); test: Test C preemergence; details: for Plant response rating (0 to 100), Nutsedge: Rate 500 g/ha, visual evaluation after 12 to 14 days
In short: as §2

Sunflower [20] = test: Test C preemergence; details: Rate 500 g/ha, visual evaluation after 12 to 14 days
[21] = Rate 125 g/ha, scale 0 to 100, 0 no effect, 100 complete control
[22] = Rate 500 g/ha, scale 0 to 100, 0 is no effect, 100 is complete control, 13 to 15 days
[23] = Rate 250 g/ha, scale 0 to 100, 0 no effect, 100 complete control
[24] = preemergence, Rate 62 g/ha, scale 0 to 100
[25] = preemergence, Rate 250 g/ha, scale 0 to 100, 0 no effect, 100 complete control

SMILES: COc1cc(N2CCC(n3ccc(C(C)C)n3)C2=O)ccc1Cl (centres unmarked) [Compound 120]
- Plant response rating, Surinam grass [1, 21]: 20
- Plant response rating, Surinam grass [1, 22]: 40
- Plant response rating, Barnyardgrass [2, 21]: 0
- Plant response rating, Barnyardgrass [2, 22]: 60
- Plant response rating, Cocklebur [3, 21]: 90
- Plant response rating, Cocklebur [3, 22]: 100
- Plant response rating, Corn (corn (Zea mays) [4]; [21]): 0
- Plant response rating, Corn (corn (Zea mays) [4]; [22]): 20
- Plant response rating, Crabgrass [5]: 30
- Plant response rating, Foxtail, Giant [6]: 0
- Plant response rating, Morningglory [7]: 50
- Plant response rating, Pigweed [8]: 60
- Plant response rating, Velvetleaf [9]: 20
- Plant response rating, Wheat [10]: 10
- Plant response rating, Wild Oat (wild oat (Avena fatua)): 30
- Plant response rating, Nightshade (Nightshade; Rate 62 g/ha, scale 0 to 100): 100
- Plant response rating, Nightshade (Nightshade; [21]): 100
- Plant response rating, Nightshade (Nightshade; [23]): 100
- Plant response rating, Sunflower (Sunflower [11]): 90
- Plant response rating, Ragweed, Common [12, 21]: 100
- Plant response rating, Ragweed, Common [12, 24]: 100
- Plant response rating (0 to 100), Ragweed, Common ([12]; preemergence): 100
- Plant response rating, Ragweed, Common [12, 25]: 100
- Plant response rating, Corn (corn (Zea mays) [13]; [21]): 0
- Plant response rating, Corn (corn (Zea mays) [13]; [24]): 0
- Plant response rating (0 to 100), Corn (corn (Zea mays) [13]; preemergence): 60
- Plant response rating, Corn (corn (Zea mays) [13]; [25]): 20
- Plant response rating, Goosegrass [14, 21]: 100
- Plant response rating, Goosegrass [14, 24]: 100
- Plant response rating (0 to 100), Goosegrass ([14]; preemergence): 100
- Plant response rating, Goosegrass [14, 25]: 100
- Plant response rating, Johnsongrass [15, 21]: 80
- Plant response rating, Johnsongrass [15, 24]: 20
- Plant response rating (0 to 100), Johnsongrass ([15]; preemergence): 100
- Plant response rating, Johnsongrass [15, 25]: 100
- Plant response rating, Lambsquarters [16, 21]: 100
- Plant response rating, Lambsquarters [16, 24]: 100
- Plant response rating (0 to 100), Lambsquarters ([16]; preemergence): 100
- Plant response rating, Lambsquarters [16, 25]: 100
- Plant response rating, Morningglory [17, 21]: 60
- Plant response rating, Morningglory [17, 24]: 60
- Plant response rating (0 to 100), Morningglory ([17]; preemergence): 100
- Plant response rating, Morningglory [17, 25]: 100
- Plant response rating, Velvetleaf [18, 21]: 100
- Plant response rating, Velvetleaf [18, 24]: 80
- Plant response rating (0 to 100), Velvetleaf ([18]; preemergence): 100
- Plant response rating, Velvetleaf [18, 25]: 100
- Plant response rating, Nutsedge [19, 21]: 80
- Plant response rating, Nutsedge [19, 24]: 40
- Plant response rating (0 to 100), Nutsedge ([19]; preemergence): 100
- Plant response rating, Nutsedge [19, 25]: 100
- Plant response rating (0 to 100), Sunflower (Sunflower [20]): 100

SMILES: CCCC(C)c1ccn(C2CCN(c3ccc(Cl)c(OC)c3)C2=O)n1 (centres unmarked) [Compound 121]
- Plant response rating, Surinam grass [1, 21]: 30
- Plant response rating, Surinam grass [1, 22]: 40
- Plant response rating, Barnyardgrass [2, 21]: 0
- Plant response rating, Barnyardgrass [2, 22]: 90
- Plant response rating, Cocklebur [3, 21]: 70
- Plant response rating, Cocklebur [3, 22]: 100
- Plant response rating, Corn (corn (Zea mays) [4]; [21]): 20
- Plant response rating, Corn (corn (Zea mays) [4]; [22]): 30
- Plant response rating, Crabgrass [5]: 30
- Plant response rating, Foxtail, Giant [6]: 0
- Plant response rating, Morningglory [7]: 50
- Plant response rating, Pigweed [8]: 50
- Plant response rating, Velvetleaf [9]: 30
- Plant response rating, Wheat [10]: 50
- Plant response rating, Wild Oat (wild oat (Avena fatua)): 30
- Plant response rating, Nightshade (Nightshade; Rate 62 g/ha, scale 0 to 100): 10
- Plant response rating, Nightshade (Nightshade; [21]): 90
- Plant response rating, Nightshade (Nightshade; [23]): 100
- Plant response rating, Sunflower (Sunflower [11]): 30
- Plant response rating, Ragweed, Common [12, 21]: 90
- Plant response rating, Ragweed, Common [12, 24]: 0
- Plant response rating (0 to 100), Ragweed, Common ([12]; preemergence): 100
- Plant response rating, Ragweed, Common [12, 25]: 90
- Plant response rating, Corn (corn (Zea mays) [13]; [21]): 20
- Plant response rating, Corn (corn (Zea mays) [13]; [24]): 0
- Plant response rating (0 to 100), Corn (corn (Zea mays) [13]; preemergence): 90
- Plant response rating, Corn (corn (Zea mays) [13]; [25]): 70
- Plant response rating, Goosegrass [14, 21]: 100
- Plant response rating, Goosegrass [14, 24]: 100
- Plant response rating (0 to 100), Goosegrass ([14]; preemergence): 100
- Plant response rating, Goosegrass [14, 25]: 100
- Plant response rating, Johnsongrass [15, 21]: 90
- Plant response rating, Johnsongrass [15, 24]: 60
- Plant response rating (0 to 100), Johnsongrass ([15]; preemergence): 100
- Plant response rating, Johnsongrass [15, 25]: 100
- Plant response rating, Lambsquarters [16, 21]: 100
- Plant response rating, Lambsquarters [16, 24]: 100
- Plant response rating (0 to 100), Lambsquarters ([16]; preemergence): 100
- Plant response rating, Lambsquarters [16, 25]: 100
- Plant response rating, Morningglory [17, 21]: 10
- Plant response rating, Morningglory [17, 24]: 0
- Plant response rating (0 to 100), Morningglory ([17]; preemergence): 70
- Plant response rating, Morningglory [17, 25]: 50
- Plant response rating, Velvetleaf [18, 21]: 20
- Plant response rating, Velvetleaf [18, 24]: 0
- Plant response rating (0 to 100), Velvetleaf ([18]; preemergence): 100
- Plant response rating, Velvetleaf [18, 25]: 100
- Plant response rating, Nutsedge [19, 21]: 0
- Plant response rating, Nutsedge [19, 24]: 0
- Plant response rating (0 to 100), Nutsedge ([19]; preemergence): 0
- Plant response rating, Nutsedge [19, 25]: 0
- Plant response rating (0 to 100), Sunflower (Sunflower [20]): 70
